Results as given in paper PMC9030254, “Target Hopping from Protein Kinases to PXR: Identification of Small-Molecule Protein Kinase Inhibitors as Selective Modulators of Pregnane X Receptor from TüKIC Library” (Cells, 2022).

Assays:
Assay in all cases: Kinase profiling
Type in all cases: biochemical
ASK1 = target: T1, ASK1 (Homo sapiens, UniProt Q99683)
T1 construct: purchased ProQinase (Freiburg, Germany)
T1 sequence (Q99683 1-1374): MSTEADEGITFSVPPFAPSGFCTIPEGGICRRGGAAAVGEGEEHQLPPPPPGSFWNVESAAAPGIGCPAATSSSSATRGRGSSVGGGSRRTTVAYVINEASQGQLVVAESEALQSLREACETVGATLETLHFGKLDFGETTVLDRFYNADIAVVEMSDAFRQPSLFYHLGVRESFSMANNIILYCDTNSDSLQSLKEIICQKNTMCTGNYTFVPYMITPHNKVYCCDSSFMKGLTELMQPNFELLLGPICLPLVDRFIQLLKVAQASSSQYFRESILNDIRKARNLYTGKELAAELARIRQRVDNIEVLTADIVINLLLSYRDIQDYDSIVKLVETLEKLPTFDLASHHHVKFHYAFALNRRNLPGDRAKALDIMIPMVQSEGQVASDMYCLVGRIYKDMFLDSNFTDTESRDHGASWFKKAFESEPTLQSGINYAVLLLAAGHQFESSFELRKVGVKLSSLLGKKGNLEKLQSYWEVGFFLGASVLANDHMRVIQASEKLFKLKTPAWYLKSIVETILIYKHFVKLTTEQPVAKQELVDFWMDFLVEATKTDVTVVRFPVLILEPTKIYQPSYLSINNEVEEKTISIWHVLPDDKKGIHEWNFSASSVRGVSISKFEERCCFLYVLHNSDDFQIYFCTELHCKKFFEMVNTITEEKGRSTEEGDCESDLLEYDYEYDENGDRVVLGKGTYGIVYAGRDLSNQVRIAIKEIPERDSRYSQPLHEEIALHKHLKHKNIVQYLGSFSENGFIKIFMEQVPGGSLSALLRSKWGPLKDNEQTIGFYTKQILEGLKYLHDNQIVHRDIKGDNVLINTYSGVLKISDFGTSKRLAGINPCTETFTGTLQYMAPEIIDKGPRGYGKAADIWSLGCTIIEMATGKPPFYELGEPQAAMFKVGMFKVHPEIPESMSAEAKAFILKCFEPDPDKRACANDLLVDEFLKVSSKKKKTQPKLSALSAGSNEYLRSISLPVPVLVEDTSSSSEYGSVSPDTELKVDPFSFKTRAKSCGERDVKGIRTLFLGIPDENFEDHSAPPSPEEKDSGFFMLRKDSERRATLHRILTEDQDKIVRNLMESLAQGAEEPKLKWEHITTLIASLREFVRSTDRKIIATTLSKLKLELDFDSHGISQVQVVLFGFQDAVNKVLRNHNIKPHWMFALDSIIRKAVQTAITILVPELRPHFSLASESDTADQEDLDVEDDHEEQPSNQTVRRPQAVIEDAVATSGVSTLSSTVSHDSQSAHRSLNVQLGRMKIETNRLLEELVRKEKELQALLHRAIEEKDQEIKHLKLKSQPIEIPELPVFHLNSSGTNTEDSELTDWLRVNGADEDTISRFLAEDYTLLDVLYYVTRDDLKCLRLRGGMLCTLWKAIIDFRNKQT
Method: (§1) The analysis was performed by ProQinase (Freiburg, Germany).

EPHA6 = target: T2, EPHA6 (Homo sapiens, UniProt Q9UF33)
T2 construct: purchased ProQinase (Freiburg, Germany)
T2 sequence (Q9UF33 23-1036): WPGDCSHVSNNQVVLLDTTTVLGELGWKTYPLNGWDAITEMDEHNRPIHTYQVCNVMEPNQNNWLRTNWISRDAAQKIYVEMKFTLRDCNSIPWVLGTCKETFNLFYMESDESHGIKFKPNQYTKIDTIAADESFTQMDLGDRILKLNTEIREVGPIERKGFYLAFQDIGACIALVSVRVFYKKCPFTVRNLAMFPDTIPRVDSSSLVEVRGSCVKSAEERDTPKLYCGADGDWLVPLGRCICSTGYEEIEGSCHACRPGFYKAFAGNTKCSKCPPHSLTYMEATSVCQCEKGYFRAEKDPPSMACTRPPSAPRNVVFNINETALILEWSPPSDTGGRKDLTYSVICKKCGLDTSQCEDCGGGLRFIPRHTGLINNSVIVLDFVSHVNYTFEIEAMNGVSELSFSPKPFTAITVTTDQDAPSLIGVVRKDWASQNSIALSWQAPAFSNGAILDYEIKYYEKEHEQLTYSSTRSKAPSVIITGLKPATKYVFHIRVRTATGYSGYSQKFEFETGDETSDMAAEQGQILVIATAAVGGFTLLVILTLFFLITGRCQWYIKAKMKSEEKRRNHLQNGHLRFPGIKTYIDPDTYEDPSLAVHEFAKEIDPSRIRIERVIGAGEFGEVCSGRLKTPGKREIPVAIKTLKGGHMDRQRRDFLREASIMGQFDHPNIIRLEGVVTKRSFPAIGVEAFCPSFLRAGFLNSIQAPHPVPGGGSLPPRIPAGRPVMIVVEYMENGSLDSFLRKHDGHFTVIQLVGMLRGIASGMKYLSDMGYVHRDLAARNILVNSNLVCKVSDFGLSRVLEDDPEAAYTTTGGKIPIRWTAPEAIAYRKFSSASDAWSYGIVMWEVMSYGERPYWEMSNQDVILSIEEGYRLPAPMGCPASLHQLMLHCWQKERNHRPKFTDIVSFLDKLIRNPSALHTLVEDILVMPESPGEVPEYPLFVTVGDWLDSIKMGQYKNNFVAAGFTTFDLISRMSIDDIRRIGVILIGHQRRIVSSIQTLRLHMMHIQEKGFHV
Method: as §1

HIPK4 = target: T3, HIPK4 (Homo sapiens, UniProt Q8NE63)
T3 construct: purchased ProQinase (Freiburg, Germany)
T3 sequence (Q8NE63 1-616): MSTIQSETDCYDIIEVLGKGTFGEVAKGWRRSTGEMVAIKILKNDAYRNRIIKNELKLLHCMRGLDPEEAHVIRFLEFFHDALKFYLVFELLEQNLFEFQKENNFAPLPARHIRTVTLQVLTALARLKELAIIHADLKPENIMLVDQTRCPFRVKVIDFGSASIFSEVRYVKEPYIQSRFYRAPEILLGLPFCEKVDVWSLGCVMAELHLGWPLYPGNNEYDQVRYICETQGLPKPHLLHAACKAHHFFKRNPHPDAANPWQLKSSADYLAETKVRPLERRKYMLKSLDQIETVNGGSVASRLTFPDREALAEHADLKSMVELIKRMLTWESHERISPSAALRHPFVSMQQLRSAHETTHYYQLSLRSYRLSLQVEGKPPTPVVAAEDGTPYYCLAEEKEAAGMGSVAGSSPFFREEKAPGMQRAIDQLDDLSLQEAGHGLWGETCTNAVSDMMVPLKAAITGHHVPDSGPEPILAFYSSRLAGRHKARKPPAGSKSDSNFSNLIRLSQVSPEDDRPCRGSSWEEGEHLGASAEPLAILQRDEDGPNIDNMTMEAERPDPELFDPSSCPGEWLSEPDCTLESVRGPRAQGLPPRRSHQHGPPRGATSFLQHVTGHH
Method: as §1

Row | Structure (SMILES) | Residual activity (ASK1; 1.0E-05 M) | Residual activity (ASK1; 1.0E-06 M) | Residual activity (EPHA6; 1.0E-05 M) | Residual activity (EPHA6; 1.0E-06 M) | Residual activity (HIPK4; 1.0E-05 M) | Residual activity (HIPK4; 1.0E-06 M)
1 | O=C(Cc1ccccc1)Nc1ccc(F)c(Nc2ccc3c(c2)CCCCC3=O)c1 [Compound 100] | 85 % of control | 87 % of control | 80 % of control | 110 % of control | 84 % of control | 92 % of control
2 | O=C(Nc1ccc(F)c(Nc2ccc3c(c2)CCCCC3=O)c1)c1cccc(F)c1 [Compound 109] | 88 % of control | 87 % of control | 94 % of control | 100 % of control | 91 % of control | 95 % of control
